In patent publication US8093231B2, “Sulfonylethyl phosphorodiamidates” (Telik, Inc., priority 2004, dated 2012) one finds IC50 data, which are given here for 34 molecules.

Type in all cases: cell-based, human
In one test the test system is MX-1 (breast carcinoma). The test is described as follows: Cytotoxicity/growth inhibition assay, MX-1. Conditions: MX-1 cells, 3 days culture, CellTiter-Glo, 0.1-200 μM tested; read-out: IC50 (MX-1). An excerpt:
(§1) The human cancer cell lines DLD-1 (colorectal adenocarcinoma), LNCap (prostate carcinoma), and OVCAR-3 (ovarian carcinoma) were obtained from the American Type Culture Collection, Manassas, Va., U.S.A., and HL-60 (promyeloid myelocytic leukemia), MX-1 (breast carcinoma), P388, and P388ADR from the National Cancer Institute, Bethesda, Md., U.S.A. Carboplatin, doxorubicin, and melphalan were obtained from Sigma-Aldrich Chemical Company, St. Louis, Mo., U.S.A. The CellTiter-Glo assay kit was obtained from Promega Corporation, Madison, Wis., U.S.A., and the Cellular DNA Cytometric Analysis Reagent Kit from Roche Diagnostics Corporation, Indianapolis, Ind., U.S.A. Lambda DNA was obtained from New England Biolabs, Beverly, Mass., U.S.A., and SYBR-Gold from Molecular Probes, Inc., Eugene, Oreg., U.S.A. The DNeasy Tissue Kit was obtained from Qiagen Inc., Valencia, Calif., U.S.A., and AmpliTaq Gold DNA polymerase and PCR reagents from Applied Biosystems, Foster City, Calif., U.S.A. All products were used in accordance with manufacturer's directions. All assays were conducted in triplicate wells, with dimethyl sulfoxide (DMSO) solvent control. The extent of cell growth was expressed as a percentage of the signal from the solvent control wells.
(§2) Log-phase cells were trypsinized, collected by centrifugation, and resuspended in a small volume of fresh medium, and the density of viable cells was determined following Trypan Blue staining. Cells were diluted in fresh media (3×10^3 cells/mL for MX-1, 3×10^3 cells/mL for DLD-1, and 6×10^3 cells/mL for LNCap cells), the test compounds (concentrations between 0.1 and 200 μM, dissolved in DMSO, 50 μL) added immediately after dilution to achieve a final DMSO concentration of 0.5%, then the suspensions added at 150 μL/well to 96-well plates, and incubated for several hours to allow attachment in the case of adherent cells. The cells were cultured for approximately three doubling times (3 days for MX-1 and 4 days for DLD-1 and LNCap). The cells were then collected by centrifugation, and 100 μL of the culture supernatant was replaced by the CellTiter-Glo reagent. After incubation for 15 minutes at room temperature, and the plate was read with a luminometer.

For test [1], the system named is DLD-1 (colorectal adenocarcinoma). The test is described as follows: Cytotoxicity/growth inhibition assay, DLD-1. Conditions: DLD-1 cells, 4 days culture, CellTiter-Glo, 0.1-200 μM tested; read-out: IC50 (DLD-1).
Excerpt: as §1, §2
In general terms: In ATP-based viability assays light output follows the ATP content of the culture.

For test [2], the system named is LNCap (prostate carcinoma). The test is described as follows: Cytotoxicity/growth inhibition assay, LNCap. The note with it: LNCap cells, 4 days culture, CellTiter-Glo, 0.1-200 μM tested; read-out: IC50 (LNCap).
Excerpt: as §1, §2

What is called IC50 is the concentration that inhibits the measured activity by half. In the case of `O=C(c1ccc(CS(=O)(=O)CCOP(=O)(N(CCCl)CCCl)N(CCCl)CCCl)cc1)N1CCOCC1` [Compound 154A], the values for the IC50 (in the test with MX-1 (breast carcinoma); in test [1]; in test [2]) were 5.5 µM, 5.8 µM and 26.2 µM, respectively.

Turning to `CC(C)(C)OC(=O)NCCCC[C@H](NC(=O)CS(=O)(=O)CCOP(=O)(N(CCCl)CCCl)N(CCCl)CCCl)C(=O)OC(C)(C)C` [Compound 27A], the IC50 in the test with MX-1 (breast carcinoma) came out at 6.2 µM; in test [1], 3.6 µM; in test [2] it was 15.5 µM.

`Nc1cc(CS(=O)(=O)CCOP(=O)(N(CCCl)CCCl)N(CCCl)CCCl)cc(CS(=O)(=O)CCOP(=O)(N(CCCl)CCCl)N(CCCl)CCCl)c1` [Compound 17B]: the IC50 in the test with MX-1 (breast carcinoma) was found to be 6.2 µM; in test [1] it was 4.6 µM; in test [2] it was 18.6 µM.

Consider `O=C(CS(=O)(=O)CCOP(=O)(N(CCCl)CCCl)N(CCCl)CCCl)NC(Cc1ccccc1)C(=O)O` (stereo not drawn) [Compound 26A], for which the results for the IC50 (in the test on MX-1 (breast carcinoma); in test [1]; in test [2]) were 29.4 µM, 8.4 µM and 76.8 µM, respectively.

With `O=P(OCCS(=O)(=O)CCCS(=O)(=O)CCOP(=O)(N(CCCl)CCCl)N(CCCl)CCCl)(N(CCCl)CCCl)N(CCCl)CCCl` [Compound 3B], the results for the IC50 (in the test with MX-1 (breast carcinoma); in test [1]; in test [2]) were 7.4 µM, 4.3 µM and 14.8 µM, respectively.

Turning to `CN(C)CC(=O)Nc1cc(CS(=O)(=O)CCOP(=O)(N(CCCl)CCCl)N(CCCl)CCCl)cc(CS(=O)(=O)CCOP(=O)(N(CCCl)CCCl)N(CCCl)CCCl)c1` [Compound 20B], the figures for the concentration for half-maximal inhibition (IC50) (in the test on MX-1 (breast carcinoma); in test [1]; in test [2]) were 5.1 µM, 4 µM and 33.3 µM, respectively.

In the case of `CC(C)NC(=O)[C@H](CS(=O)(=O)CCOP(=O)(N(CCCl)CCCl)N(CCCl)CCCl)NS(=O)(=O)c1ccc(C#N)cc1` [Compound 101A], the IC50 in the test on MX-1 (breast carcinoma) stood at 14.8 µM; in test [1], 7.2 µM; in test [2], 57 µM.

Turning to `O=P(OCCS(=O)(=O)Cc1ccccc1CS(=O)(=O)CCOP(=O)(N(CCCl)CCCl)N(CCCl)CCCl)(N(CCCl)CCCl)N(CCCl)CCCl` [Compound 13B], the half-inhibitory concentration (IC50) in the test on MX-1 (breast carcinoma) is 1.9 µM; in test [1] it was 2.3 µM; in test [2] it was 4.7 µM.

`CC(C)CS(=O)(=O)CCOP(=O)(N(CCCl)CCCl)N(CCCl)CCCl` [Compound 6A]: the IC50 with MX-1 (breast carcinoma) was 4.6 µM; in test [1], 6.8 µM; in test [2] it was 17.7 µM.

Consider `CC(C)(C)OC(=O)[C@@H](Cc1ccccc1)NC(=O)CS(=O)(=O)CCOP(=O)(N(CCCl)CCCl)N(CCCl)CCCl` [Compound 25A], for which the results for the IC50 (in the test on MX-1 (breast carcinoma); in test [1]; in test [2]) were 5.6 µM, 3.7 µM and 18.9 µM, respectively.

For the molecule `CCNC(=O)c1ccc(CS(=O)(=O)CCOP(=O)(N(CCCl)CCCl)N(CCCl)CCCl)cc1` [Compound 163A], the figures for the IC50 (with MX-1 (breast carcinoma); in test [1]; in test [2]) were 4.8 µM, 4.8 µM and 28.5 µM, respectively.

`CCS(=O)(=O)CCOP(=O)(N(CCCl)CCCl)N(CCCl)CCCl` [Compound 1A]: the IC50 with MX-1 (breast carcinoma) is 16.9 µM; in test [1] it was 9.1 µM; in test [2] it was 57.1 µM.

In the case of `CNC(=O)c1ccc(CS(=O)(=O)CCOP(=O)(N(CCCl)CCCl)N(CCCl)CCCl)cc1` [Compound 168A], the IC50 was determined as 7.9 µM in the test with MX-1 (breast carcinoma), 5.7 µM in test [1] and 24.2 µM in test [2].

As to `O=P(OCCS(=O)(=O)c1ccc(Cl)c(Cl)c1)(N(CCCl)CCCl)N(CCCl)CCCl` [Compound 112A], the results for the IC50 (in the test on MX-1 (breast carcinoma); in test [1]; in test [2]) were 1 µM, 0.8 µM and 6.3 µM, respectively.

Take `N[C@@H](CS(=O)(=O)CCOP(=O)(N(CCCl)CCCl)N(CCCl)CCCl)C(=O)N1CCN(C(=O)c2ccco2)CC1` [Compound 90A]: the results for the IC50 (in the test on MX-1 (breast carcinoma); in test [1]; in test [2]) were 23.8 µM, 10.4 µM and no less than 200 µM, respectively.

For `O=P(OCCS(=O)(=O)Cc1ccccc1Cl)(N(CCCl)CCCl)N(CCCl)CCCl` [Compound 136A], the results for the IC50 (in the test with MX-1 (breast carcinoma); in test [1]; in test [2]) were 2.8 µM, 1.7 µM and 21.4 µM, respectively.

Consider `CC(C)CCS(=O)(=O)CCOP(=O)(N(CCCl)CCCl)N(CCCl)CCCl` [Compound 9A], for which the IC50 in the test on MX-1 (breast carcinoma) came to 5.8 µM; in test [1] it was 5.9 µM; in test [2], 17.3 µM.

For `O=C(NCCO)c1ccc(CS(=O)(=O)CCOP(=O)(N(CCCl)CCCl)N(CCCl)CCCl)cc1` [Compound 160A], the IC50 in the test on MX-1 (breast carcinoma) was found to be 33.2 µM; in test [1], 13.9 µM; in test [2], 104 µM.

Consider `CN1CCN(C(=O)CS(=O)(=O)CCOP(=O)(N(CCCl)CCCl)N(CCCl)CCCl)CC1` [Compound 22A], for which the results for the IC50 (in the test on MX-1 (breast carcinoma); in test [1]; in test [2]) were 23.7 µM, 8.4 µM and 38.5 µM, respectively.

As to `O=P(OCCS(=O)(=O)c1cccc(S(=O)(=O)CCOP(=O)(N(CCCl)CCCl)N(CCCl)CCCl)c1)(N(CCCl)CCCl)N(CCCl)CCCl` [Compound 11B], the IC50 with MX-1 (breast carcinoma) was determined as 3 µM; in test [1], 2.1 µM; in test [2] it was 4.5 µM.

As for `CC(C)(C(N)C(=O)O)S(=O)(=O)CCOP(=O)(N(CCCl)CCCl)N(CCCl)CCCl` (stereo not drawn) [Compound 76A], the IC50 is 23.2 µM in the test with MX-1 (breast carcinoma), 6.6 µM in test [1] and 99.7 µM in test [2].

For the molecule `CC(C)S(=O)(=O)CCOP(=O)(N(CCCl)CCCl)N(CCCl)CCCl` [Compound 4A], the IC50 with MX-1 (breast carcinoma) is 24 µM; in test [1] it was 12.7 µM; in test [2], 67.8 µM.

For the molecule `CS(=O)(=O)N[C@@H](CS(=O)(=O)CCOP(=O)(N(CCCl)CCCl)N(CCCl)CCCl)C(=O)O` [Compound 104A], the IC50 in the test on MX-1 (breast carcinoma) was 25.3 µM; in test [1], 20 µM; in test [2], no less than 200 µM.

Regarding `CC(C)(C)c1ccc(S(=O)(=O)CCOP(=O)(N(CCCl)CCCl)N(CCCl)CCCl)cc1` [Compound 114A], the IC50 in the test with MX-1 (breast carcinoma) amounted to 4.7 µM; in test [1], 1.9 µM; in test [2], 8.2 µM.

Turning to `O=C(c1ccc(CS(=O)(=O)CCOP(=O)(N(CCCl)CCCl)N(CCCl)CCCl)cc1)N1CCN(Cc2ccccc2)CC1` [Compound 177A], the IC50 in the test with MX-1 (breast carcinoma) came out at 8.8 µM; in test [1], 4.5 µM; in test [2], 21.1 µM.

For the molecule `O=P(OCCS(=O)(=O)Cc1ccc(Cl)cc1Cl)(N(CCCl)CCCl)N(CCCl)CCCl` [Compound 135A], the IC50 came out at 3.5 µM in the test on MX-1 (breast carcinoma), 0.6 µM in test [1] and 19.1 µM in test [2].

As to `O=C(Nc1cc(CS(=O)(=O)CCOP(=O)(N(CCCl)CCCl)N(CCCl)CCCl)cc(CS(=O)(=O)CCOP(=O)(N(CCCl)CCCl)N(CCCl)CCCl)c1)C1CCCNC1` (stereo not drawn) [Compound 21B], the IC50 in the test on MX-1 (breast carcinoma) is 14.9 µM; in test [1] it was 4.1 µM; in test [2] it was 132 µM.

`CS(=O)(=O)N[C@@H](CS(=O)(=O)CCOP(=O)(N(CCCl)CCCl)N(CCCl)CCCl)C(=O)NCc1ccccc1` [Compound 95A]: the figures for the IC50 (in the test with MX-1 (breast carcinoma); in test [1]; in test [2]) were 21.3 µM, 9.9 µM and 46.6 µM, respectively.

For the molecule `CCN(CC)C(=O)c1ccc(CS(=O)(=O)CCOP(=O)(N(CCCl)CCCl)N(CCCl)CCCl)cc1` [Compound 157A], the values for the IC50 (in the test on MX-1 (breast carcinoma); in test [1]; in test [2]) were 3.1 µM, 2.3 µM and 29.6 µM, respectively.

With `CC(C)(C)OC(=O)CNC(=O)CS(=O)(=O)CCOP(=O)(N(CCCl)CCCl)N(CCCl)CCCl` [Compound 38A], the IC50 came to 8 µM with MX-1 (breast carcinoma), 7.6 µM in test [1] and 23.3 µM in test [2].

Consider `O=C(NCCCN1CCOCC1)c1ccc(CS(=O)(=O)CCOP(=O)(N(CCCl)CCCl)N(CCCl)CCCl)cc1` [Compound 175A], for which the IC50 stood at 18.2 µM in the test on MX-1 (breast carcinoma), 10.9 µM in test [1] and 65.1 µM in test [2].

In the case of `O=P(OCCS(=O)(=O)CCS(=O)(=O)CCOP(=O)(N(CCCl)CCCl)N(CCCl)CCCl)(N(CCCl)CCCl)N(CCCl)CCCl` [Compound 1B], the IC50 with MX-1 (breast carcinoma) was 4 µM; in test [1], 2.5 µM; in test [2] it was 5.1 µM.

For `CC(C)NC(=O)[C@H](CS(=O)(=O)CCOP(=O)(N(CCCl)CCCl)N(CCCl)CCCl)NS(C)(=O)=O` [Compound 97A], the figures for the IC50 (in the test on MX-1 (breast carcinoma); in test [1]; in test [2]) were 26.8 µM, 8.5 µM and 57.8 µM, respectively.

With `O=P(OCCS(=O)(=O)c1ccc(S(=O)(=O)CCOP(=O)(N(CCCl)CCCl)N(CCCl)CCCl)cc1)(N(CCCl)CCCl)N(CCCl)CCCl` [Compound 12B], the IC50 in the test with MX-1 (breast carcinoma) came out at 4.3 µM; in test [1], 1.9 µM; in test [2] it was 7.1 µM.
